Measured values published in patent US20110230493A1, “1-OXA-8-Azaspiro [4,5] Decabe-8-Carboxamide Compounds as FAAH Inhibitors” (Pfizer Inc., priority 2008, published 2011).
Marks after values point to notes of the source that are not given here.

Experiments:
rat FAAH = biological target: T1, rat FAAH (Rattus norvegicus, UniProt P97612); assay: FAAH assay, rat FAAH enzyme inactivation (kinact/Ki); format: biochemical; conditions: oleamide 50 μM, 30° C.; for rFAAH kinact/Ki: in vitro, pH 7.4; for kinact/KI: pH 7.4, in vitro, read-out: rFAAH kinact/Ki
T1 construct: made in house; host or cells: E. coli
T1 sequence (P97612 1-579): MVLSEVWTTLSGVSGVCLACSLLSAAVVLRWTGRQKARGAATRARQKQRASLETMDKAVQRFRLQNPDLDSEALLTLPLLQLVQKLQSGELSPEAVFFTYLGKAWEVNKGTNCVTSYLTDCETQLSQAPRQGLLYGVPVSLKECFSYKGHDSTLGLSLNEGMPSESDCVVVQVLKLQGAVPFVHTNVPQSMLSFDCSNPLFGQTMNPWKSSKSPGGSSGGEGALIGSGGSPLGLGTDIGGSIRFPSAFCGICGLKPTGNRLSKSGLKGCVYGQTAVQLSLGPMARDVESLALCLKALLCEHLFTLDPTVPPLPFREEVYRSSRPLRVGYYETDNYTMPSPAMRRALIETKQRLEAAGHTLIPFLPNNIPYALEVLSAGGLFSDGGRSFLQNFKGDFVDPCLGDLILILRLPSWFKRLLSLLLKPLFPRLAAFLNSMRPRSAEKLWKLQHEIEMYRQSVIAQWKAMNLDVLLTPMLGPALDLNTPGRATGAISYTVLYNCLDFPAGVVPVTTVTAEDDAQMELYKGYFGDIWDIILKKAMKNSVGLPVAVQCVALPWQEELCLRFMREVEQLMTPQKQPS
Summary of the method: (§1)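 Oleamide hydrolysis by 1-4 nM purified E. coli-expressed FAAH (substrate 50 μM = Km) coupled to GDH/NADH, pH 7.4 phosphate, 7.5% DMSO and EtOH, 30° C; A340 followed 90 min. kobs from mono-exponential fits; kinact/Ki from kobs-versus-concentration slope, multiplied by two.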

Male Sprague-Dawley Rats = assay: In vivo Complete Freund's Adjuvant (CFA) efficacy assay, inhibition of allodynia; set-up: species or system rat; key: (+) indicates the test compound was determined to be efficacious at 3 mpk, oral dosing; (−) indicates the test compound was determined to not be efficacious at 3 mpk, oral dosing; conditions: p < 0.05 vs vehicle group
Description: For additional information on the CFA efficacy assay, see Jayamanne et al., Brit. J. Pharmacol. 2006, 147, 281-288. Experiments were performed on adult Male Sprague-Dawley Rats (200 g-250 g). Inflammation was induced in the left hindpaw of the rat by an intra-plantar injection of 150 uL Complete Freund's Adjuvant (CFA) (SIGMA F5881). The CFA injection immediately induces local inflammation, paw swelling, and pain that persists for at least two weeks post-injection. Baseline paw withdrawal threshold (PWT) was measured to determine the percent inhibition of allodynia using a set of Von Frey Hairs on day 4 post injection as illustrated by the Dixon Up and Down Method (W. J. Dixon, Ann. Rev. Pharmacol. Toxicol. 1980, 20:441-462). […] Following Dose administration PWT threshold was evaluated again at four hours postdose. The Sprague-Dawley rats used in this assay were purchased from Harlan, 8520 Allison Pointe Blvd., Indianapolis, Ind., 46250, U.S.A. Sprague-Dawley rats are an outbred breed of albino rats first produced by the Sprague Dawley farms in Madison, Wis., U.S.A.
Percent Inhibition of Allodynia was determined by the formula: […]
ΔPWT measurements were averaged for each treatment group and statistical comparisons between groups were made using ANOVA and Dunnett's two-tailed test. […]

human FAAH = biological target: T2, human FAAH (Homo sapiens, UniProt O00519); assay: FAAH assay, human FAAH enzyme inactivation (kinact/Ki); format: biochemical; conditions: oleamide 50 μM, 30° C.; for hFAAH kinact/Ki: in vitro, pH 7.4; for kinact/KI: pH 7.4, in vitro, read-out: hFAAH kinact/Ki
T2 construct: made in house; host or cells: E. coli
T2 sequence (O00519 1-579): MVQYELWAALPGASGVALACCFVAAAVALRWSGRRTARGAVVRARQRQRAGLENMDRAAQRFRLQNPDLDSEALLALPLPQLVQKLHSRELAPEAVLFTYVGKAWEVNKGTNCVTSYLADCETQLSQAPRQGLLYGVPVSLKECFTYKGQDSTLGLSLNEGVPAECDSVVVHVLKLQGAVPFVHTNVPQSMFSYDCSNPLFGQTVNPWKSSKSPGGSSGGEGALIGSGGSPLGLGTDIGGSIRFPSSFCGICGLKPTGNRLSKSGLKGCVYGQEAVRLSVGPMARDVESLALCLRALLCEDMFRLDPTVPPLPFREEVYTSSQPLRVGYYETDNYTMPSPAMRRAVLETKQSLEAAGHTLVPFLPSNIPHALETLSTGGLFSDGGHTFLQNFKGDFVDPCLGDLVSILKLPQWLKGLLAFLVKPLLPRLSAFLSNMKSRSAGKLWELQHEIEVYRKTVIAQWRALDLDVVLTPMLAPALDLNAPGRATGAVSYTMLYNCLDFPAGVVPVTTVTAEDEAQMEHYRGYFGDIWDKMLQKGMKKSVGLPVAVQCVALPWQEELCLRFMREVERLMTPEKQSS
Summary of the method: as §1

[1] = 3 mpk, oral dosing, PWT four hours postdose

rFAAH kinact/Ki (rat FAAH) [M⁻¹ s⁻¹]	hFAAH kinact/Ki (human FAAH) [M⁻¹ s⁻¹]	kinact/KI (rat FAAH) [M⁻¹ s⁻¹]	kinact/KI (human FAAH) [M⁻¹ s⁻¹]	Compound	CFA Efficacy (Male Sprague-Dawley Rats; [1])	CFA Efficacy (Male Sprague-Dawley Rats; 10 mpk, intraperitoneal dosing)
974	5480			Cn1nnnc1NC(=O)N1CCC2(CC1)CC(c1noc(-c3ccc(C(F)(F)F)cc3)n1)CO2 (single isomer, unassigned) [Example 83, N-(1-methyl-1H-tetrazol-5-yl)-3-{5-[4-(trifluoromethyl)phenyl]-1,2,4-oxadiazol-3-yl}-1-oxa-8-azaspiro[4.5]decane-8-carboxamide]	(+)	
		1500	8420	Cn1nnnc1NC(=O)N1CCC2(CC1)CC(c1noc(-c3ccc(OC(F)(F)F)cc3)n1)CO2 (single isomer, unassigned) [Example 84, N-(1-methyl-1H-tetrazol-5-yl)-3-{5-[4-(trifluoromethoxy)phenyl]-1,2,4-oxadiazol-3-yl}-1-oxa-8-azaspiro[4.5]decane-8-carboxamide]	(+)	
1340	5980			Cn1nnnc1NC(=O)N1CCC2(CC1)CC(c1noc(-c3ccc(OC(F)(F)F)cc3)n1)CO2 (single isomer, unassigned) [Example 85, N-(1-methyl-1H-tetrazol-5-yl)-3-{5-[4-(trifluoromethoxy)phenyl]-1,2,4-oxadiazol-3-yl}-1-oxa-8-azaspiro[4.5]decane-8-carboxamide]	(+)	
		2160	4600	Cn1nnnc1NC(=O)N1CCC2(CC1)CC(c1cccc(C(F)(F)F)c1)CO2 (single isomer, unassigned) [Example 93, N-(1-methyl-1H-tetrazol-5-yl)-3-[3-(trifluoromethyl)phenyl]-1-oxa-8-azaspiro[4.5]decane-8-carboxamide]	(+)	
2110	3760			Cn1nnnc1NC(=O)N1CCC2(CC1)CC(c1cccc(C(F)(F)F)c1)CO2 (single isomer, unassigned) [Example 94, N-(1-methyl-1H-tetrazol-5-yl)-3-[3-(trifluoromethyl)phenyl]-1-oxa-8-azaspiro[4.5]decane-8-carboxamid]	(+)	
		1130	1340	O=C(Nc1cccnn1)N1CCC2(CC1)C[C@@H](c1cccc(Oc3ccc(C(F)(F)F)cn3)c1)CO2 [Example 2, (3S)—N-pyridazin-3-yl-3-(3-{[5-(trifluoromethyl)pyridin-2-yl]oxy}phenyl)-1-oxa-8-azaspiro[4.5]decane-8-carboxamide]		(−)^c
		2240	3040	O=C(Nc1cccnn1)N1CCC2(CC1)C[C@H](c1cccc(Oc3ccc(C(F)(F)F)cn3)c1)CO2 [Example 3, (3R)—N-pyridazin-3-yl-3-(3-{[5-(trifluoromethyl)pyridin-2-yl]oxy}phenyl)-1-oxa-8-azaspiro[4.5]decane-8-carboxamide]		(−)^c
		526	2890	O=C(Nc1cccnc1)N1CCC2(CC1)C[C@H](c1cccc(Oc3ccc(Br)cn3)c1)CO2 [Example 7, (3R)-3-{3-[(5-bromopyridin-2-yl)oxy]phenyl}-N-pyridin-3-yl-1-oxa-8-azaspiro[4.5]decane-8-carboxamide]	(+)	
		3520	1950	O=C(Nc1cccnc1)N1CCC2(CC1)C[C@@H](c1cccc(Oc3ccc(Br)cn3)c1)CO2 [Example 8]	(+)	
		3340	4970	O=C(Nc1cccnn1)N1CCC2(CC1)C[C@H](c1cccc(Oc3ccc(Br)cn3)c1)CO2 [Example 9, (3R)-3-{3-[(5-bromopyridin-2-yl)oxy]phenyl}-N-pyridazin-3-yl-1-oxa-8-azaspiro[4.5]decane-8-carboxamide]	(+)	
		5890	2690	O=C(Nc1cccnn1)N1CCC2(CC1)C[C@@H](c1cccc(Oc3ccc(Br)cn3)c1)CO2 [Example 10, (3S)-3-{3-[(5-bromopyridin-2-yl)oxy]phenyl}-N-pyridazin-3-yl-1-oxa-8-azaspiro[4.5]decane-8-carboxamide]	(+)	
		1020	2420	O=C(Nc1cccnn1)N1CCC2(CC1)C[C@H](c1cccc(Oc3ccc(Cl)cn3)c1)CO2 [Example 11, (3R)-3-{3-[(5-chloropyridin-2-yl)oxy]phenyl}-N-pyridazin-3-yl-1-oxa-8-azaspiro[4.5]decane-8-carboxamide]	(+)	
		2270	2190	O=C(Nc1cccnn1)N1CCC2(CC1)C[C@@H](c1cccc(Oc3ccc(Cl)cn3)c1)CO2 [Example 12, (3S)-3-{3-[(5-chloropyridin-2-yl)oxy]phenyl}-N-pyridazin-3-yl-1-oxa-8-azaspiro[4.5]decane-8-carboxamide]	(+)	
		15800	12500	Cc1noc(NC(=O)N2CCC3(CC2)C[C@H](c2ccc(OCc4ccc(F)cc4)cc2)CO3)c1C [Example 41, (3R)—N-(3,4-dimethylisoxazol-5-yl)-3-{4-[(4-fluorobenzyl)oxy]phenyl}-1-oxa-8-azaspiro[4.5]decane-8-carboxamide]	(+)	
		5320	5590	Cc1noc(NC(=O)N2CCC3(CC2)C[C@@H](c2ccc(OCc4ccc(F)cc4)cc2)CO3)c1C [Example 42, (3S)—N-(3,4-dimethylisoxazol-5-yl)-3-{4-[(4-fluorobenzyl)oxy]phenyl}-1-oxa-8-azaspiro[4.5]decane-8-carboxamide]	(+)	
		6260	9350	Cc1noc(NC(=O)N2CCC3(CC2)C[C@H](c2ccc(OCc4cccc(F)c4)cc2)CO3)c1C [Example 47, (3R)—N-(3,4-dimethylisoxazol-5-yl)-3-{4-[(3-fluorobenzyl)oxy]phenyl}-1-oxa-8-azaspiro[4.5]decane-8-carboxamide]	(+)	
		2540	4470	Cc1noc(NC(=O)N2CCC3(CC2)C[C@@H](c2ccc(OCc4cccc(F)c4)cc2)CO3)c1C [Example 48, (3S)—N-(3,4-dimethylisoxazol-5-yl)-3-{4-[(3-fluorobenzyl)oxy]phenyl}-1-oxa-8-azaspiro[4.5]decane-8-carboxamide]	(+)	
		21900	16800	Cc1noc(NC(=O)N2CCC3(CC2)C[C@H](c2ccc(OCc4ccc(Cl)cc4)cc2)CO3)c1C [Example 49, (3R)-3-{4-[(4-chlorobenzyl)oxy]phenyl}-N-(3,4-dimethylisoxazol-5-yl)-1-oxa-8-azaspiro[4.5]decane-8-carboxamide]	(−)	
